Test results as given in PubChem BioAssay (NCI).
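Growth conditions: 96-well plates. Treatment: test compound, 48 hours, 5 concentrations. Analysis: linear interpolation between bracketing concentrations; unreached endpoints set to highest concentration. GI50: concentration for 50% inhibition of growth. TGI denotes the concentration required for complete inhibition of growth.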

Key:
Assay in all cases: NCI tumour cell line growth inhibition, 48 h
[1] = tested on: NCI-H522 lung
[2] = tested on: COLO 205 colon
[3] = tested on: MOLT-4 leukemia
[4] = tested on: SR leukemia
[5] = tested on: HL-60(TB) leukemia
[6] = tested on: MCF7 breast
[7] = tested on: HT29 colon
[8] = tested on: HOP-62 NSCLC
[9] = tested on: HOP-92 NSCLC
[10] = tested on: OVCAR-3 ovarian
[11] = tested on: TK-10 renal
[12] = tested on: M14 melanoma
[13] = tested on: HCT-116 colon
[14] = tested on: CCRF-CEM leukemia
[15] = tested on: CAKI-1 renal
[16] = tested on: SNB-19 CNS
[17] = tested on: MDA-MB-435
[18] = tested on: NCI-H23 lung
[19] = tested on: RPMI-8226 leukemia
[20] = tested on: SNB-75 CNS
[21] = tested on: SF-539 CNS
[22] = tested on: DU-145 prostate
[23] = tested on: HCT-15 colon
[24] = tested on: A549 NSCLC
[25] = tested on: LOX IMVI melanoma
[26] = tested on: SF-268 CNS
[27] = tested on: NCI/ADR-RES ovarian
[28] = tested on: SK-MEL-5 melanoma
[29] = tested on: SK-MEL-2 melanoma
[30] = tested on: OVCAR-4 ovarian
[31] = tested on: KM12 colon
[32] = tested on: A498 renal
[33] = tested on: MDA-MB-231 breast
[34] = tested on: UO-31 renal
[35] = tested on: UACC-257 melanoma
[36] = tested on: NCI-H226 lung
[37] = tested on: OVCAR-5 ovarian
[38] = tested on: IGROV1 ovarian
[39] = tested on: U251 CNS
[40] = tested on: 786-0 renal
[41] = tested on: NCI-H460 lung
[42] = tested on: HS 578T breast
[43] = tested on: T-47D breast
[44] = tested on: HCC-2998 colon
[45] = tested on: K-562 leukemia
[46] = tested on: BT-549 breast
[47] = tested on: ACHN renal
[48] = tested on: SF-295 CNS
[49] = tested on: SK-OV-3 ovarian
[50] = tested on: EKVX NSCLC
[51] = tested on: MALME-3M melanoma
[52] = tested on: SN12C renal
[53] = tested on: OVCAR-8 ovarian
[54] = tested on: SK-MEL-28 melanoma
[55] = tested on: UACC-62 melanoma
[56] = tested on: PC-3 prostate
[57] = tested on: RXF 393 renal

Work on `c1ccc2c(N=NSc3ncnc4nc[nH]c34)c3ccccc3nc2c1` yielded a GI50 [1] of 1350 nM, a TGI [1] of 3360 nM and a GI50 [2] of 428 nM. The TGI [2] was 1760 nM, the GI50 [3] was 454 nM and the TGI [3] was 4830 nM. It also gave a GI50 [4] of 1060 nM, a TGI [4] of 8170 nM and a GI50 [5] of 3120 nM. The TGI [5] was 6960 nM, the GI50 [6] was 370 nM and the TGI [6] was 10400 nM. It also gave a GI50 [7] of 398 nM, a TGI [7] of 2160 nM and a GI50 [8] of 1200 nM. It also gave a TGI [8] of 5710 nM, a GI50 [9] of 1790 nM and a TGI [9] of 4770 nM. The GI50 [10] was 2430 nM, the TGI [10] was 8780 nM and the GI50 [11] was 1770 nM. It also gave a TGI [11] of 6370 nM, a GI50 [12] of 1700 nM and a TGI [12] of 4120 nM. The GI50 [13] was 530 nM, the TGI [13] was 11600 nM and the GI50 [14] was 1310 nM. For the same compound, the TGI [14] was 6660 nM, the GI50 [15] was 1760 nM and the TGI [15] was 7070 nM. For the same compound, the GI50 [16] was 1360 nM, the TGI [16] was 13000 nM and the GI50 [17] was 1970 nM. The TGI [17] was 6120 nM, the GI50 [18] was 1700 nM and the TGI [18] was 5760 nM. The GI50 [19] was 2420 nM, the TGI [19] was 6820 nM and the GI50 [20] was 1350 nM. The TGI [20] was 2950 nM, the GI50 [21] was 1100 nM and the TGI [21] was 3550 nM. It also gave a GI50 [22] of 1400 nM, a TGI [22] of 6630 nM and a GI50 [23] of 1150 nM. The TGI [23] was 10200 nM, the GI50 [24] was 648 nM and the TGI [24] was 3890 nM. It also gave a GI50 [25] of 643 nM, a TGI [25] of 7140 nM and a GI50 [26] of 1800 nM. It also gave a TGI [26] of 6530 nM, a GI50 [27] of 1190 nM and a TGI [27] of 8390 nM. It also gave a GI50 [28] of 1160 nM, a TGI [28] of 2390 nM and a GI50 [29] of 1640 nM. The TGI [29] was 3610 nM, the GI50 [30] was 1630 nM and the TGI [30] was 10500 nM. The GI50 [31] was 1610 nM, the TGI [31] was 10700 nM and the GI50 [32] was 1130 nM. For the same compound, the TGI [32] was 2600 nM, the GI50 [33] was 1240 nM and the TGI [33] was 6110 nM. The GI50 [34] was 1090 nM, the TGI [34] was 3990 nM and the GI50 [35] was 662 nM. It also gave a TGI [35] of 6560 nM, a GI50 [36] of 641 nM and a TGI [36] of 2310 nM. It also gave a GI50 [37] of 1890 nM, a TGI [37] of 6300 nM and a GI50 [38] of 2730 nM. The TGI [38] was 8600 nM, the GI50 [39] was 1120 nM and the TGI [39] was 10900 nM. For the same compound, the GI50 [40] was 1790 nM, the TGI [40] was 13800 nM and the GI50 [41] was 877 nM. The TGI [41] was 5670 nM, the GI50 [42] was 2600 nM and the TGI [42] was 7210 nM. For the same compound, the GI50 [43] was 1440 nM, the TGI [43] was 11000 nM and the GI50 [44] was 1490 nM. It also gave a TGI [44] of 3770 nM, a GI50 [45] of 1580 nM and a TGI [45] of 11100 nM. The GI50 [46] was 2760 nM, the TGI [46] was 8700 nM and the GI50 [47] was 609 nM. The TGI [47] was 7030 nM, the GI50 [48] was 1130 nM and the TGI [48] was 9630 nM. The GI50 [49] was 1380 nM, the TGI [49] was 14200 nM and the GI50 [50] was 2610 nM. The TGI [50] was 12800 nM, the GI50 [51] was 2010 nM and the TGI [51] was 4110 nM. For the same compound, the GI50 [52] was 811 nM, the TGI [52] was 12800 nM and the GI50 [53] was 1500 nM. For the same compound, the TGI [53] was 2960 nM, the GI50 [54] was 1780 nM and the TGI [54] was 3710 nM. The GI50 [55] was 1100 nM, the TGI [55] was 2630 nM and the GI50 [56] was 1630 nM. It also gave a TGI [56] of 8040 nM, a GI50 [57] of 967 nM and a TGI [57] of 2870 nM.
